Assays:
[1] = tested on: E. faecium CL 4931 (VanA); assay: microbe, parasite or virus in culture; format: cell-based; parameters: CL4931 (in vitro testing): unit not given here; settings: Tables 7 and 8; unit not given
Source text: (§1) National Committee for Clinical Laboratory Standards (NCCLS) guidelines [Methods for Dilution Antimicrobial Susceptibility Tests for Bacteria that Grow Aerobically-Fourth Edition; Approved Standard (NCCLS Document M7-A4, January 1997)] are used to establish the assay, although variations are made to optimize the published method according to the specific needs of the present investigation.
(§2) The test panel currently includes eight enterococci and 13 staphylococci, which are selected based upon their antibiotic susceptibility profiles. The methicillin-sensitive Staphylococcus aureus (MSSA) strain MB2985 (Smith isolate) is used to assesses the potential for serum protein binding of the compounds. The paired Gram-negative strains ASP #49 (envA-) and ASP #50 (envA+) (M. Salvatore/N. Lee) are included to judge membrane effects. Table 3 presents a detailed description of the strains included in the panel, including some of the sources of the strains of bacteria.
(§3) The glycopeptide antibiotic teicoplanin is included whenever possible.
(§4) TSB, containing 10% HS* for vancomycin intermediate S. aurcus/methicillin-resistant S. aureus (VISA/MRSA) strains, is inoculated from an appropriate source (frozen broth or agar slant) and grown approximately 17 hr at 35° C. with shaking at 220 rpm. Cultures are grown in tubes with a volume of 5 ml for enterococci and 2 ml for all other strains.
(§5) Four milliliter (4 ml) overnight culture is added to 36 ml physiological saline to obtain tenfold dilutions (enterococci). Overnight culture (0.4 ml) is added to 39.6 ml saline to obtain 100-fold dilutions (all strains except enterococci). Diluted cultures are maintained on ice until time of inoculation of test plates.
(§6) The number of CFU/mL is determined on BHI agar plates, although this is not done routinely because titers of overnight cultures are relatively constant. The test media include: • BHI for enterococci and VISA/MRSA; • MH II (i.e., cation-adjusted Mueller-Hinton broth) for MRS, MSS and E. coli.; • MH II+HSA for MSSA is prepared as follows: • a. 2×MHII+86mg/ml HSA • b. Dissolve 4.3 g HSA in 50 ml autoclaved 2x MH II. • c. pH to 7.0 by adding 2M MOPS, sodium. • d. Filter sterilize using 0.22 μm Coming cellulose acetate filter, used because of reported low protein binding. • e. 1×MH II+43 mg/ml HSA • f. Dilute the 2×medium twofold and filter as above. 5.8.6. Preparation of Test Plates
(§7) Using a Denley liquid handling system (or similar automatic device), 100 μ1×medium is added to each well in columns 2-12 of a 96-well microtiter dish. Using a multichannel pipettor, 100 μl 2×medium is added to each well in column 1. Plates may be filled on the day prior to assay, wrapped in plastic bags and refrigerated.
(§8) Vancomycin, Schering 29482, and teicoplanin are prepared on a weight per volume basis using 10 mM 3-(N-morpholino)propane-sulfonic acid (MOPS) buffer pH 7. Test compounds are received in solution in appropriate solvent (typically as 1 mg/ml in DMSO) or are dissolved in appropriate solvent prior to further dilution in 10 mM MOPS buffer, ph7. Consistent with NCCLS guidelines, antibiotics are handled aseptically but are not otherwise sterilized.
(§9) 100 μl appropriately diluted antibiotic solution is added to the first well of the designated row of the 96-well microtiter dish and serially diluted by twofold across the row using the Denley liquid handling system. With the aid of a Dynatech NEC 2000 inoculator, each well of the microtiter dish is inoculated with 1.5 μl diluted overnight culture, yielding approximately 1-5×10^6 CFU/ml for enterococci and approximately 3-7×10^5 CFU/ml for all other strains. Dishes are placed in stacks of no more than five, wrapped in plastic bags and incubated at 35° C. • Indication of result(s) type (% INH, IC50, Zone size, etc.) • MIC=minimum inhibitory concentration ps 5.8.9. Interpretation of the Results on the Basis of Activity […]

[2] = tested on: E. faecium CL 5053 (VanA); assay: microbe, parasite or virus in culture; format: cell-based; parameters: CL5053 (in vitro testing): unit not given here; settings: Tables 7 and 8; unit not given
Source text: as §1, §2, §3, §4, §5, §6, §7, §8, §9

[3] = tested on: E. faecium CL 5242 (VanA); assay: microbe, parasite or virus in culture; format: cell-based; parameters: CL5242 (in vitro testing): unit not given here; settings: Tables 7 and 8; unit not given
Source text: as §1, §2, §3, §4, §5, §6, §7, §8, §9

[4] = tested on: E. faecalis CL 4877 (VanB); assay: microbe, parasite or virus in culture; format: cell-based; parameters: CL4877 (in vitro testing): unit not given here; settings: Tables 7 and 8; unit not given
Source text: as §1, §2, §3, §4, §5, §6, §7, §8, §9

[5] = tested on: CL 4931, CL 5053, CL 5242 and CL 4877; format: cell-based, E. faecium, E. faecalis; parameters: unit not given here; settings: mean of CL4931, CL5053, CL5242, CL4877; unit not given
Source text: as §1, §2, §3, §4, §5, §6, §7, §8, §9

| Structure (SMILES) | CL4931 (in vitro testing) [1] | CL5053 (in vitro testing) [2] | CL5242 (in vitro testing) [3] | CL4877 (in vitro testing) [4] | Mean [5] |
| --- | --- | --- | --- | --- | --- |
| CNC(CC(C)C)C(=O)NC1C(=O)NC(CC(N)=O)C(=O)NC2C(=O)NC3C(=O)NC(C(=O)NC(C(=O)O)c4cc(O)cc(O)c4-c4cc3ccc4O)C(O)c3ccc(c(Cl)c3)Oc3cc2cc(c3OC2OC(CNCC3CCCCN3)C(O)C(O)C2OC2CC(C)(NCc3ccc(OCc4ccc(Cl)c(Cl)c4)cc3)C(O)C(C)O2)Oc2ccc(cc2Cl)C1O (centres unmarked) [Compound 140] | 4 | 8 | 2 | 0.5 | 3.6 |
| CNC(CC(C)C)C(=O)NC1C(=O)NC(CC(N)=O)C(=O)NC2C(=O)NC3C(=O)NC(C(=O)NC(C(=O)O)c4cc(O)cc(O)c4-c4cc3ccc4O)C(O)c3ccc(c(Cl)c3)Oc3cc2cc(c3OC2OC(CNCc3ccc(C)cc3)C(O)C(O)C2OC2CC(C)(NCc3ccc(OCc4ccc(Cl)c(Cl)c4)cc3)C(O)C(C)O2)Oc2ccc(cc2Cl)C1O (centres unmarked) [Compound 141] | 4 | 8 | 2 | 1 | 3.8 |
| CNC(CC(C)C)C(=O)NC1C(=O)NC(CC(N)=O)C(=O)NC2C(=O)NC3C(=O)NC(C(=O)NC(C(=O)O)c4cc(O)cc(O)c4-c4cc3ccc4O)C(O)c3ccc(c(Cl)c3)Oc3cc2cc(c3OC2OC(CNCC3CCCO3)C(O)C(O)C2OC2CC(C)(NCc3ccc(OCc4ccc(Cl)c(Cl)c4)cc3)C(O)C(C)O2)Oc2ccc(cc2Cl)C1O (centres unmarked) [Compound 142] | 4 | 8 | 2 | 2 | 4.0 |
| CNC(CC(C)C)C(=O)NC1C(=O)NC(CC(N)=O)C(=O)NC2C(=O)NC3C(=O)NC(C(=O)NC(C(=O)O)c4cc(O)cc(O)c4-c4cc3ccc4O)C(O)c3ccc(c(Cl)c3)Oc3cc2cc(c3OC2OC(CNCCc3ccccc3)C(O)C(O)C2OC2CC(C)(NCc3ccc(OCc4ccc(Cl)c(Cl)c4)cc3)C(O)C(C)O2)Oc2ccc(cc2Cl)C1O (centres unmarked) [Compound 143] | 8 | 4 | 2 | 2 | 4.0 |
| CNC(CC(C)C)C(=O)NC1C(=O)NC(CC(N)=O)C(=O)NC2C(=O)NC3C(=O)NC(C(=O)NC(C(=O)O)c4cc(O)cc(O)c4-c4cc3ccc4O)C(O)c3ccc(c(Cl)c3)Oc3cc2cc(c3OC2OC(CNC3CCCC3)C(O)C(O)C2OC2CC(C)(NCc3ccc(OCc4ccc(Cl)c(Cl)c4)cc3)C(O)C(C)O2)Oc2ccc(cc2Cl)C1O (centres unmarked) [Compound 144] | 4 | 8 | 2 | 2 | 4.0 |
| CNC(CC(C)C)C(=O)NC1C(=O)NC(CC(N)=O)C(=O)NC2C(=O)NC3C(=O)NC(C(=O)NC(C(=O)O)c4cc(O)cc(O)c4-c4cc3ccc4O)C(O)c3ccc(c(Cl)c3)Oc3cc2cc(c3OC2OC(CNCc3ccco3)C(O)C(O)C2OC2CC(C)(NCc3ccc(OCc4ccc(Cl)c(Cl)c4)cc3)C(O)C(C)O2)Oc2ccc(cc2Cl)C1O (centres unmarked) [Compound 145] | 8 | 8 | 1 | 0.5 | 4.4 |
| CNC(CC(C)C)C(=O)NC1C(=O)NC(CC(N)=O)C(=O)NC2C(=O)NC3C(=O)NC(C(=O)NC(C(=O)O)c4cc(O)cc(O)c4-c4cc3ccc4O)C(O)c3ccc(c(Cl)c3)Oc3cc2cc(c3OC2OC(CNCCO)C(O)C(O)C2OC2CC(C)(NCc3ccc(OCc4ccc(Cl)c(Cl)c4)cc3)C(O)C(C)O2)Oc2ccc(cc2Cl)C1O (centres unmarked) [Compound 146] | 8 | 8 | 1 | 0.5 | 4.4 |
| CNCC1OC(Oc2c3cc4cc2Oc2ccc(cc2Cl)C(O)C2NC(=O)C(NC(=O)C4NC(=O)C(CC(N)=O)NC(=O)C(NC(=O)C(CC(C)C)NC)C(O)c4ccc(c(Cl)c4)O3)c3ccc(O)c(c3)-c3c(O)cc(O)cc3C(C(=O)O)NC2=O)C(OC2CC(C)(NCc3ccc(OCc4ccc(Cl)c(Cl)c4)cc3)C(O)C(C)O2)C(O)C1O (centres unmarked) [Compound 147] | 4 | 8 | 2 | 4 | 4.5 |
| CCCNCC1OC(Oc2c3cc4cc2Oc2ccc(cc2Cl)C(O)C2NC(=O)C(NC(=O)C4NC(=O)C(CC(N)=O)NC(=O)C(NC(=O)C(CC(C)C)NC)C(O)c4ccc(c(Cl)c4)O3)c3ccc(O)c(c3)-c3c(O)cc(O)cc3C(C(=O)O)NC2=O)C(OC2CC(C)(NCc3ccc(OCc4ccc(Cl)c(Cl)c4)cc3)C(O)C(C)O2)C(O)C1O (centres unmarked) [Compound 148] | 8 | 8 | 1 | 1 | 4.5 |
| CNC(CC(C)C)C(=O)NC1C(=O)NC(CC(N)=O)C(=O)NC2C(=O)NC3C(=O)NC(C(=O)NC(C(=O)O)c4cc(O)cc(O)c4-c4cc3ccc4O)C(O)c3ccc(c(Cl)c3)Oc3cc2cc(c3OC2OC(CNCc3ccc(Cl)cc3)C(O)C(O)C2OC2CC(C)(NCc3ccc(OCc4ccc(Cl)c(Cl)c4)cc3)C(O)C(C)O2)Oc2ccc(cc2Cl)C1O (centres unmarked) [Compound 149] | 8 | 8 | 2 | 0.25 | 4.6 |
| C=CCNCC1OC(Oc2c3cc4cc2Oc2ccc(cc2Cl)C(O)C2NC(=O)C(NC(=O)C4NC(=O)C(CC(N)=O)NC(=O)C(NC(=O)C(CC(C)C)NC)C(O)c4ccc(c(Cl)c4)O3)c3ccc(O)c(c3)-c3c(O)cc(O)cc3C(C(=O)O)NC2=O)C(OC2CC(C)(NCc3ccc(OCc4ccc(Cl)c(Cl)c4)cc3)C(O)C(C)O2)C(O)C1O (centres unmarked) [Compound 150] | 8 | 8 | 2 | 4 | 5.5 |
| CNC(CC(C)C)C(=O)NC1C(=O)NC(CC(N)=O)C(=O)NC2C(=O)NC3C(=O)NC(C(=O)NC(C(=O)O)c4cc(O)cc(O)c4-c4cc3ccc4O)C(O)c3ccc(c(Cl)c3)Oc3cc2cc(c3OC2OC(CNC(=O)Cc3ccccc3)C(O)C(O)C2OC2CC(C)(NCc3ccc(OCc4ccc(Cl)c(Cl)c4)cc3)C(O)C(C)O2)Oc2ccc(cc2Cl)C1O (centres unmarked) [Compound 151] | 8 | 16 | 2 | 0.5 | 6.6 |
| CNC(CC(C)C)C(=O)NC1C(=O)NC(CC(N)=O)C(=O)NC2C(=O)NC3C(=O)NC(C(=O)NC(C(=O)O)c4cc(O)cc(O)c4-c4cc3ccc4O)C(O)c3ccc(c(Cl)c3)Oc3cc2cc(c3OC2OC(CNCc3ccccc3Cl)C(O)C(O)C2OC2CC(C)(NCc3ccc(OCc4ccc(Cl)c(Cl)c4)cc3)C(O)C(C)O2)Oc2ccc(cc2Cl)C1O (centres unmarked) [Compound 153] | 8 | 16 | 4 | 0.12 | 7.0 |
